{"source": "patent US20260109714A1", "about": "“PYRIMIDINE-FUSED RING COMPOUND, AND PREPARATION METHOD THEREFOR AND USE THEREOF” (GENFLEET THERAPEUTICS (SHANGHAI) INC., priority 2022, published 2026)", "key": {"in vivo": {"test": "in vivo", "conditions": "male, CD-1, mouse, po, 30 mg/kg", "procedure": "Test objective: Male CD-1 mice were used as test animals. The drug concentrations in plasma of mice at various times were determined by LC/MS/MS after intravenous and oral administration of the test compounds. The pharmacokinetic behavior of the test compounds in mice was studied and their pharmacokinetic characteristics were evaluated.\nTest methods: test animals: 60 healthy adult male CD-1 mice, aged 6-8 weeks and weighing about 30 g, and divided into 10 groups, including IV groups (intravenous injection group, five groups), with 6 mice in each group; and PO groups (oral administration group, five groups), with 6 mice in each group.\nPreparation of drug solution: IV group: Taking 10 mL sample solution as an example, 2 mg sample was weighed, 0.5 mL DMSO and 1 mL Solutol HS 15 were sequentially added, and then 8.5 mL 6% HP-β-CD was added, and stirred ultrasonically to obtain a clear solution of 0.2 mg/mL.\nPO group 1: Taking 10 mL sample solution as an example, 10 mg sample was weighed, 0.5 mL DMSO and 1 mL Solutol HS 15 were sequentially added, and then 8.5 mL 6% HP-β-CD was added, and stirred ultrasonically to obtain a 1 mg/mL solution.\nPO group 2: A 3 mg/mL solution of the sample was prepared according to the preparation method for PO group 1.\nAdministration: After overnight fasting, the mice in the IV group were administered with a volume of 5 mL/kg at a dose of 1 mg/kg.\nPO group 1: The mice were administered with a volume of 10 mL/kg at a dose of 10 mg/kg.\nPO group 2: The mice were administered with a volume of 10 mL/kg at a dose of 30 mg/kg.\nExperimental operations: Male CD-1 mice in the intravenous injection group and oral administration group were given the test compound, respectively. After that, 50 μl of blood was periodically collected into a K2EDTA anticoagulation tube at 0.0833, 0.25, 0.5, 1, 2, 4, 6, 8 and 24 hrs, and the plasma was separated by centrifugation at 4° C. and 8000 rpm for 15 min. The plasma was stored in dry ice at −80° C. 4 hrs after administration, the animals were allowed to free access to food. The contents of the test compounds in plasma of mice after intravenous and oral administration were determined by LC/MS/MS. The linear range of the method was 1-3000 ng/ml. The plasma samples were treated with acetonitrile to precipitate the protein and then analyzed."}, "AGS p-ERK": {"test_system": "AGS p-ERK", "test": "Cell assay for p-ERK (HTRF, Advance ERK phospho-T202/Y204 kit)", "type": "cell-based, human", "conditions": "Homo sapiens; AGS cells (KRAS G12D), 3 hrs with compound, inhibition of p-ERK level", "how_it_was_run": "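KRAS G12D AGS gastric cancer cells were plated overnight, then exposed 3 h to 3.16-fold compound dilutions at 0.1% DMSO final. Lysates were probed for ERK phospho-T202/Y204 by HTRF after 4 h. Inhibition relative to DMSO and blank was fitted by four-parameter regression for IC50.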"}, "[1]": {"test_system": "AsPC-1 human pancreatic cancer cell with KRAS G12D mutation", "test": "Cell proliferation inhibition experiment, 3D CellTiter-Glo, AsPC-1", "type": "cell-based", "conditions": "Homo sapiens, ASPC1, 120 h, AsPC-1 cells, 3D spheroid, 5 days", "how_it_was_run": "(§1)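 3D spheroids (800 AsPC-1 or 400 AGS cells/well) established overnight, then treated with 3.16-fold compound dilutions (0.1% DMSO) for 5 days. Viability read by CellTiter-Glo 3D luminescence; inhibition normalised to DMSO and medium blank, IC50 by four-parameter fit.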"}, "[2]": {"test_system": "AGS human gastric cancer cell line with KRAS G12D mutation", "test": "Cell proliferation inhibition experiment, 3D CellTiter-Glo, AGS", "type": "cell-based", "conditions": "Homo sapiens, 120 h, AGS cells, 3D spheroid, 5 days", "how_it_was_run": "as §1"}}, "data": [{"compound": "[2H]C([2H])([2H])[C@@H]1Oc2nc(-c3cc(N)cc(Cl)c3C(F)(F)F)c(F)c3nc(OC[C@@]45CCCN4CC(=C(F)F)C5)nc(c23)N2C[C@H]3CC[C@H](N3)[C@@H]12", "note": "[Z1054, 3-chloro-5-((5S,5aS,6S,9R)-12-(((S)-2-(difluoromethylene)tetrahydro-1H-pyrrolizin-7a(5H)-yl)methoxy)-1-fluoro-5-(methyl-d3)-5a,6,7,8,9,10-hexahydro-5H-4-oxa-3,10a,11,13,14-pentaaza-6,9-methanonaphtho[1,8-ab]hepten-2-yl)-4-(trifluoromethyl) aniline]", "values": [{"measurement": "AUC(0-t)", "setting": "in vivo", "value": 3250, "unit": "ng·h/mL"}, {"measurement": "bioavailability", "setting": "in vivo", "value": 29.4, "unit": "%"}, {"measurement": "IC50", "setting": "AGS p-ERK", "value": 0.43, "unit": "nM"}, {"measurement": "IC50", "setting": "[1]", "value": 1.29, "unit": "nM"}, {"measurement": "IC50", "setting": "[2]", "value": 0.37, "unit": "nM"}]}]}
